Our source for the mortality values is patent publication US9523100B2, “Pesticidal compositions and related methods” (DOW AGROSCIENCES LLC, priority 2013, dated 2016).

Test [1] concerns Green Peach Aphid (GPA) (Myzus persicae) (MYZUPE). Kind of test: Bioassay for Green Peach Aphid (GPA), foliar spray on cabbage seedlings. It is filed as in vivo. To be noted: 72 h, 200 ppm foliar spray on cabbage seedlings, graded after three days, Abbott corrected % control, read-out: GPA 200 ppm, % Control (or Mortality) rating. A digest of the protocol:
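Cabbage seedlings infested with 20-50 GPA (wingless adults and nymphs) one day before spraying to runoff with 200 ppm compound; four pots per treatment. Live aphids counted after three days at ~25° C; percent control by Abbott's correction against solvent-sprayed plants.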

Test [2] deals with Sweetpotato Whitefly-Crawler (WF) (Bemisia tabaci) (BEMITA). Kind of test: Insecticidal test for Sweetpotato Whitefly-Crawler (WF) in foliar spray assay on cotton plants. It is filed as in vivo. To be noted: 216 h, 200 ppm foliar spray on cotton plants, graded after 9 days, Abbott corrected % control, read-out: WF 200 ppm, % Control (or Mortality) rating. A digest of the protocol: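 Cotton plants carrying 200–400 whitefly eggs sprayed to run-off on both leaf surfaces at 200 ppm (acetone/0.025% Tween 20), four plants per treatment. After 9 days at about 25 °C, live 3rd–4th instar nymphs counted; Abbott-corrected percent control versus solvent check.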

With `O=C(CCC(=O)N(CC1CC1)c1cn(-c2cccnc2)nc1Cl)N1CCCC1` [Compound F95, N-(3-Chloro-1-(pyridin-3-yl)-1H-pyrazol-4-yl)-N-(cyclopropylmethyl)-4-oxo-4-(pyrrolidin-1-yl)butanamide], the mortality at 200 ppm in test [1] and in test [2] was 0 to 80% throughout.

As for `CCN(C(=O)C(C)N(C)C(C)=O)c1cn(-c2cccnc2)nc1Cl` (stereo not shown) [Compound F96, N-(3-Chloro-1-(pyridin-3-yl)-1H-pyrazol-4-yl)-N-ethyl-2-(N-methylacetamido)propanamide], the mortality at 200 ppm in test [1] and in test [2] was 80 to 100% in each case.

Turning to `CCN(C(=O)CNC(=O)CCC(F)(F)F)c1cn(-c2cccnc2)nc1Cl` [Compound F97, N-(2-((3-Chloro-1-(pyridin-3-yl)-1H-pyrazol-4-yl)(ethyl)amino)-2-oxoethyl)-4,4,4-trifluorobutanamide], the mortality at 200 ppm in test [1] and in test [2] was 80 to 100% throughout.

Consider `O=C1CCCN1CC(=O)N(CC1CC1)c1cn(-c2cccnc2)nc1Cl` [Compound F98, N-(3-chloro-1-(pyridin-3-yl)-1H-pyrazol-4-yl)-N-(cyclopropylmethyl)-2-(2-oxopyrrolidin-1-yl)acetamide], for which the mortality at 200 ppm in test [1] and in test [2] was 80 to 100% throughout.

Turning to `CCN(C(=O)CNC(=O)/C=C/C(F)(F)F)c1cn(-c2cccnc2)nc1Cl` [Compound F99, (E)-N-(2-((3-Chloro-1-(pyridin-3-yl)-1H-pyrazol-4-yl)(ethyl)amino)-2-oxoethyl)-4,4,4-trifluorobut-2-enamide], the figures for the mortality at 200 ppm in test [1] and in test [2] were 0 to 80% and 80 to 100%, respectively.

For `CCN(C(=O)CCC(=O)N1CCCCCC1)c1cn(-c2cccnc2)nc1Cl` [Compound F100, 4-(Azepan-1-yl)-N-(3-chloro-1-(pyridin-3-yl)-1H-pyrazol-4-yl)-N-ethyl-4-oxobutanamide], the mortality at 200 ppm is 0 to 80% in test [1] and 80 to 100% in test [2].

On to `CCN(C(=O)CCNC(=O)CC#N)c1cn(-c2cccnc2)nc1Cl` [Compound F101, N-(3-Chloro-1-(pyridin-3-yl)-1H-pyrazol-4-yl)-3-(2-cyanoacetamido)-N-ethylpropanamide], for which the mortality at 200 ppm in test [1] was in the range of 0 to 80%; in test [2], 80 to 100%.

Turning to `CCN1CC(CCC(=O)N(CC)c2cn(-c3cccnc3)nc2Cl)C1=O` (stereo not shown) [Compound F103, N-(3-Chloro-1-(pyridin-3-yl)-1H-pyrazol-4-yl)-N-ethyl-3-(1-ethyl-2-oxoazetidin-3-yl)propanamide], the mortality at 200 ppm in test [1] and in test [2] was 80 to 100% each time.

As to `CCN(C(=O)CCCC1CN(CC2CC2(F)F)C1=O)c1cn(-c2cccnc2)nc1Cl` (stereo not shown) [Compound F104, N-(3-Chloro-1-(pyridin-3-yl)-1H-pyrazol-4-yl)-4-(1-((2,2-difluorocyclopropyl)methyl)-2-oxoazetidin-3-yl)-N-ethylbutanamide], the mortality at 200 ppm in test [1] and in test [2] was 80 to 100% throughout.

`CCN(C(=O)CC/C(C)=N/O)c1cn(-c2cccnc2)nc1Cl` [Compound F105, (E)-N-(3-chloro-1-(pyridin-3-yl)-1H-pyrazol-4-yl)-N-ethyl-4-(hydroxyimino) pentanamide]: the results for the mortality at 200 ppm in test [1] and in test [2] were 0 to 80% and 80 to 100%, respectively.

As for `CCN(C(=O)CCC(=O)N1CCCC1)c1cn(-c2cccnc2)nc1Cl` [Compound F106, N-(3-Chloro-1-(pyridin-3-yl)-1H-pyrazol-4-yl)-N-ethyl-4-oxo-4-(pyrrolidin-1-yl)butanamide], the mortality at 200 ppm in test [1] and in test [2] was 0 to 80% throughout.

With `CN(C(=O)CCN1CCCC1=O)c1cn(-c2cccnc2)nc1Cl` [Compound F107, N-(3-Chloro-1-(pyridin-3-yl)-1H-pyrazol-4-yl)-N-methyl-3-(2-oxopyrrolidin-1-yl)propanamide], the mortality at 200 ppm in test [1] and in test [2] was 80 to 100% in each case.

For `CCN(C(=O)CCC(=O)N(C)CCC(F)(F)F)c1cn(-c2cccnc2)nc1Cl` [Compound F108, N1-(3-chloro-1-(pyridin-3-yl)-1H-pyrazol-4-yl)-N1-ethyl-N4-methyl-N4-(3,3,3-trifluoropropyl)succinamide], the mortality at 200 ppm in test [1] and in test [2] was 80 to 100% each time.

Consider `CN(C(=O)[C@@H]1C=C[C@H](NC(=O)OC(C)(C)C)C1)c1cn(-c2cccnc2)nc1Cl` [Compound F109, tert-butyl ((1R,4S)-4-((3-chloro-1-(pyridin-3-yl)-1H-pyrazol-4-yl)(methyl)carbamoyl)cyclopent-2-en-1-yl)carbamate], for which the mortality at 200 ppm in test [1] was 0 to 80%; in test [2], 80 to 100%.

Turning to `CCN(C(=O)C1CCN(C(=O)OC(C)(C)C)CC1)c1cn(-c2cccnc2)nc1Cl` [Compound F110, tert-Butyl 44-(3-chloro-1-(pyridin-3-yl)-1H-pyrazol-4-yl)(ethylcarbamoyl) piperidine-1-carboxylate], the mortality at 200 ppm in test [1] and in test [2] was 80 to 100% each time.

Consider `CN(C(=O)CN1CCOC1=O)c1cn(-c2cccnc2)nc1Cl` [Compound F111, N-(3-Chloro-1-(pyridin-3-yl)-1H-pyrazol-4-yl)-N-methyl-2-(2-oxooxazolidin-3-yl)acetamide], for which the mortality at 200 ppm in test [1] and in test [2] was 80 to 100% in each case.

For `CCN(C(=O)CCNC(=O)C1CCN(C(C)=O)CC1)c1cn(-c2cccnc2)nc1Cl` [Compound F112, 1-Acetyl-N-(3-((3-chloro-1-(pyridin-3-yl)-1H-pyrazol-4-yl)(ethyl)amino)-3-oxopropyl)piperidine-4-carboxamide], the mortality at 200 ppm in test [1] lay in the range of 0 to 80%; in test [2], 80 to 100%.

As to `CCN(C(=O)CCNC(=O)C1(C)CC1(F)F)c1cn(-c2cccnc2)nc1Cl` (stereo not shown) [Compound F113, N-(3-((3-chloro-1-(pyridin-3-yl)-1H-pyrazol-4-yl)(ethyl)amino)-3-oxopropyl)-2,2-difluoro-1-methylcyclopropanecarboxamide], the mortality at 200 ppm in test [1] and in test [2] was 80 to 100% throughout.

Consider `CCN(C(=O)C(C)N(C)C(=O)N(C)C)c1cn(-c2cccnc2)nc1Cl` (stereo not shown) [Compound F114, N-(3-Chloro-1-(pyridin-3-yl)-1H-pyrazol-4-yl)-N-ethyl-2-(1,3,3-trimethylureido)propanamide], for which the mortality at 200 ppm in test [1] and in test [2] was 80 to 100% in each case.

As for `CCN(C(=O)CCC(=O)NCc1ccncc1)c1cn(-c2cccnc2)nc1Cl` [Compound F115, N1-(3-Chloro-1-(pyridin-3-yl)-1H-pyrazol-4-yl)-N1-ethyl-N4-(pyridin-4-ylmethyl)succinamide], the values for the mortality at 200 ppm in test [1] and in test [2] were 0 to 80% and 80 to 100%, respectively.

`CN(C(=O)[C@H]1C=C[C@@H](NC(=O)OC(C)(C)C)C1)c1cn(-c2cccnc2)nc1Cl` [Compound F116, tert-Butyl ((1S,4R)-4-((3-chloro-1-(pyridin-3-yl)-1H-pyrazol-4-yl)(methyl)carbamoyl)cyclopent-2-en-1-yl)carbamate]: the mortality at 200 ppm in test [1] lay in the range of 0 to 80%; in test [2], 80 to 100%.

With `CCN(C(=O)CC1CN(Cc2ccc(C(F)(F)F)nc2)C1=O)c1cn(-c2cccnc2)nc1Cl` (stereo not shown) [Compound F117], the mortality at 200 ppm in test [1] and in test [2] was 80 to 100% in each case.

On to `CCN(C(=O)CCC(=O)N(C)Cc1ccc(F)cc1)c1cn(-c2cccnc2)nc1Cl` [Compound F118, N1-(3-Chloro-1-(pyridin-3-yl)-1H-pyrazol-4-yl)-N1-ethyl-N4-(4-fluorobenzyl)-N4-methylsuccinamide], for which the mortality at 200 ppm in test [1] and in test [2] was 80 to 100% each time.

As to `CCN(C(=O)CCC1CN(C)C1=O)c1cn(-c2cccnc2)nc1Cl` (stereo not shown) [Compound F119, N-(3-Chloro-1-(pyridin-3-yl)-1H-pyrazol-4-yl)-N-ethyl-3-(1-methyl-2-oxoazetidin-3-yl)propanamide], the mortality at 200 ppm in test [1] and in test [2] was 80 to 100% throughout.

As to `CCN(C(=O)CN(C)C(=O)CC(F)(F)F)c1cn(-c2cccnc2)nc1Cl` [Compound F120, N-(2-((3-Chloro-1-(pyridin-3-yl)-1H-pyrazol-4-yl)(ethyl)amino)-2-oxoethyl)-3,3,3-trifluoro-N-methylpropanamide], the mortality at 200 ppm in test [1] and in test [2] was 80 to 100% each time.

For the compound `CCN(C(=O)CCN(C)C(=O)N(C)C)c1cn(-c2cccnc2)nc1Cl` [Compound F121, N-(3-Chloro-1-(pyridin-3-yl)-1H-pyrazol-4-yl)-N-ethyl-3-(1,3,3-trimethylureido)propanamide], the mortality at 200 ppm in test [1] and in test [2] was 80 to 100% in each case.

For the compound `CCN(C(=O)Cn1ccccc1=O)c1cn(-c2cccnc2)nc1Cl` [Compound F122, N-(3-Chloro-1-(pyridin-3-yl)-1H-pyrazol-4-yl)-N-ethyl-2-(2-oxopyridin-1(2H)-yl)acetamide], the mortality at 200 ppm in test [1] lay in the range of 0 to 80%; in test [2], 80 to 100%.

`CCN(C(=O)CN1CCCCCC1=O)c1cn(-c2cccnc2)nc1Cl` [Compound F123, N-(3-Chloro-1-(pyridin-3-yl)-1H-pyrazol-4-yl)-N-ethyl-2-(2-oxoazepan-1-yl)acetamide]: the mortality at 200 ppm fell in the range of 0 to 80% in test [1] and 80 to 100% in test [2].

In the case of `CCN(C(=O)CN1CCCC1=O)c1cn(-c2cccnc2)nc1Cl` [Compound F124, N-(3-Chloro-1-(pyridin-3-yl)-1H-pyrazol-4-yl)-N-ethyl-2-(2-oxopyrrolidin-1-yl)acetamide], the mortality at 200 ppm in test [1] and in test [2] was 80 to 100% each time.
